Source: ChEMBL document CHEMBL1154277, “Discovery of N-substituted pyridinones as potent and selective inhibitors of p38 kinase” (Bioorg Med Chem Lett, 2009)

Tests used:
[1] = target: Ephrin type-A receptor 4 (Homo sapiens) (UniProt P54764); experiment: Inhibition of EPHA4 at 10 uM
[2] = target: Tyrosine-protein kinase Fer (Homo sapiens) (UniProt P16591); experiment: Inhibition of FER at 10 uM
[3] = system: Fibroblast growth factor receptor 3 (Homo sapiens), P22607 [K650E]; experiment: Inhibition of FGFR3 K650E (mutant) at 10 uM
[4] = target: Receptor-type tyrosine-protein kinase FLT3 (Homo sapiens) (UniProt P36888); experiment: Inhibition of FLT3 at 10 uM
[5] = system: Receptor-type tyrosine-protein kinase FLT3 (Homo sapiens), P36888 [D835Y]; experiment: Inhibition of FLT3 D835Y (mutant) at 10 uM
[6] = target: Serine/threonine-protein kinase mTOR (Homo sapiens) (UniProt P42345); experiment: Inhibition of mTOR at 10 uM
[7] = system: Tyrosine-protein kinase JAK2 (Homo sapiens), O60674 [V617F]; experiment: Inhibition of JAK2 V617F (mutant) at 10 uM
[8] = target: Tyrosine-protein kinase Lyn (Homo sapiens) (UniProt P07948); experiment: Inhibition of LYN B at 10 uM
[9] = target: Dual specificity mitogen-activated protein kinase kinase 1 (Homo sapiens) (UniProt Q02750); experiment: Inhibition of MEK1 at 10 uM
[10] = target: Mitogen-activated protein kinase kinase kinase kinase 4 (Homo sapiens) (UniProt O95819); experiment: Inhibition of HGK at 10 uM
[11] = target: Homeodomain-interacting protein kinase 2 (Homo sapiens) (UniProt Q9H2X6); experiment: Inhibition of HIPK2 at 10 uM
[12] = target: Mitogen-activated protein kinase 11 (Homo sapiens) (UniProt Q15759); experiment: Inhibition of p38beta at 10 uM
[13] = target: MAP kinase-activated protein kinase 3 (Homo sapiens) (UniProt Q16644); experiment: Inhibition of MAPKAPK3 at 10 uM
[14] = target: Maternal embryonic leucine zipper kinase (Homo sapiens) (UniProt Q14680); experiment: Inhibition of MELK at 10 uM
[15] = target: Serine/threonine-protein kinase Nek1 (Homo sapiens) (UniProt Q96PY6); experiment: Inhibition of NEK1 at 10 uM
[16] = target: Serine/threonine-protein kinase Nek9 (Homo sapiens) (UniProt Q8TD19); experiment: Inhibition of NEK9 at 10 uM
[17] = target: PAS domain-containing serine/threonine-protein kinase (Homo sapiens) (UniProt Q96RG2); experiment: Inhibition of PASK at 10 uM
[18] = system: Platelet-derived growth factor receptor alpha (Homo sapiens), P16234 [T674I]; experiment: Inhibition of PDGFRalpha T674I (mutant) at 10 uM
[19] = target: Phosphorylase b kinase gamma catalytic chain, liver/testis isoform (Homo sapiens) (UniProt P15735); experiment: Inhibition of PHKgamma2 at 10 uM
[20] = target: Serine/threonine-protein kinase PLK2 (Homo sapiens) (UniProt Q9NYY3); experiment: Inhibition of PLK2 at 10 uM
[21] = Inhibition of PKA at 10 uM
[22] = target: Protein kinase C beta type (Homo sapiens) (UniProt P05771); experiment: Inhibition of PKCbeta1 at 10 uM
Chain of Protein kinase C beta type (Homo sapiens) (P05771 2-671 limits assumed): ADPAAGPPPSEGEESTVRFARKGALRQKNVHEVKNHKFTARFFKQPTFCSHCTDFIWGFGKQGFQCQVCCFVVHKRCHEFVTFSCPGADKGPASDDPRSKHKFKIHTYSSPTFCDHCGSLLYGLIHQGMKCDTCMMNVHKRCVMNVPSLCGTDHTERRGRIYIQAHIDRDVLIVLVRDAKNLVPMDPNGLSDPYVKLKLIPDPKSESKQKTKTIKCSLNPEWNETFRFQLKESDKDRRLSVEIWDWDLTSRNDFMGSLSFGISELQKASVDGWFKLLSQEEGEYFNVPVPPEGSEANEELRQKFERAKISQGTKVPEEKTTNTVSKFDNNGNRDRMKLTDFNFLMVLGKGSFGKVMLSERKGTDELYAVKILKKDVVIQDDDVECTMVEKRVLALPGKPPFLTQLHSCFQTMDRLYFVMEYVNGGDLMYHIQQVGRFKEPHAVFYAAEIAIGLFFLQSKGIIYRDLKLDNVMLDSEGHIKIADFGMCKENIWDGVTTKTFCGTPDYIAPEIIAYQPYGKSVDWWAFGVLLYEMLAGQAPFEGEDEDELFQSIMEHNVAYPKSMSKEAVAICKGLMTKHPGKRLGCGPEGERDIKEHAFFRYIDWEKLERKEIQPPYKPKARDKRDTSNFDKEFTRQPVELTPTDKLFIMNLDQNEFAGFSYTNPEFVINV

[23] = target: cAMP-dependent protein kinase catalytic subunit PRKX (Homo sapiens) (UniProt P51817); experiment: Inhibition of PRKX at 10 uM
[24] = system: Proto-oncogene tyrosine-protein kinase receptor Ret (Homo sapiens), P07949 [V804L]; experiment: Inhibition of RET V804L (mutant) at 10 uM
Chain of Proto-oncogene tyrosine-protein kinase receptor Ret (Homo sapiens), P07949 [V804L] (P07949 whole entry V804L): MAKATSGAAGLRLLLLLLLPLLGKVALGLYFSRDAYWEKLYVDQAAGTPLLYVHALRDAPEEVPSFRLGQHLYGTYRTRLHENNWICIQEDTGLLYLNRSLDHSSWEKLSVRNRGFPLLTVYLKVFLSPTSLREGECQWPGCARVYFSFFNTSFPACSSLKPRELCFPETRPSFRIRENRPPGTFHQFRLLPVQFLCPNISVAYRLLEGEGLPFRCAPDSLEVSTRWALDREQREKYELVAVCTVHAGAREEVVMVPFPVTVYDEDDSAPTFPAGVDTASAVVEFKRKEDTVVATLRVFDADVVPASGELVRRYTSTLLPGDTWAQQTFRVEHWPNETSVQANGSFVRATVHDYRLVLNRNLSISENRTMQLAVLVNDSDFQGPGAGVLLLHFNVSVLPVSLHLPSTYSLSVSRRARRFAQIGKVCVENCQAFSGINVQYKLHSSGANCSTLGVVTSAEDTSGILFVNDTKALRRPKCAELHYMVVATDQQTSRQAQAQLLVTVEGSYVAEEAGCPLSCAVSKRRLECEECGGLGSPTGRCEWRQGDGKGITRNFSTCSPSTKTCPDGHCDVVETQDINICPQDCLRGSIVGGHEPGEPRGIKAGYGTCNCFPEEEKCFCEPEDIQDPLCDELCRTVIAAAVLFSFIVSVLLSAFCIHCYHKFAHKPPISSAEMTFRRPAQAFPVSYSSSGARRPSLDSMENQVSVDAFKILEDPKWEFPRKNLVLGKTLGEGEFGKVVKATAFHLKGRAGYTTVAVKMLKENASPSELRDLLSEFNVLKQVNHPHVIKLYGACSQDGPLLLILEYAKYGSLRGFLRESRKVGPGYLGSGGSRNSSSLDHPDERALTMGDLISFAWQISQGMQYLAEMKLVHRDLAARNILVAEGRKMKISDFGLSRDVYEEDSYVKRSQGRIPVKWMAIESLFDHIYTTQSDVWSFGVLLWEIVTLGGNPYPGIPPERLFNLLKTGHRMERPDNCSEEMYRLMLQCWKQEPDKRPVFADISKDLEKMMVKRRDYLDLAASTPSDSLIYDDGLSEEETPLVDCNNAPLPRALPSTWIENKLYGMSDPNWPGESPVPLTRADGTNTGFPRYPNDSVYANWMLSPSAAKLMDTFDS

[25] = target: Rho-associated protein kinase 2 (Homo sapiens) (UniProt O75116); experiment: Inhibition of ROCK2 at 10 uM
[26] = target: Ribosomal protein S6 kinase alpha-2 (Homo sapiens) (UniProt Q15349); experiment: Inhibition of RSK3 at 10 uM
[27] = Inhibition of SRC N1 at 10 uM
[28] = target: SRSF protein kinase 3 (Homo sapiens) (UniProt Q9UPE1); experiment: Inhibition of MSSK1 at 10 uM
[29] = target: Serine/threonine-protein kinase 3 (Homo sapiens) (UniProt Q13188); experiment: Inhibition of MST2 at 10 uM
[30] = target: Serine/threonine-protein kinase TBK1 (Homo sapiens) (UniProt Q9UHD2); experiment: Inhibition of TBK1 at 10 uM
Chain of Serine/threonine-protein kinase TBK1 (Homo sapiens) (Q9UHD2 whole entry): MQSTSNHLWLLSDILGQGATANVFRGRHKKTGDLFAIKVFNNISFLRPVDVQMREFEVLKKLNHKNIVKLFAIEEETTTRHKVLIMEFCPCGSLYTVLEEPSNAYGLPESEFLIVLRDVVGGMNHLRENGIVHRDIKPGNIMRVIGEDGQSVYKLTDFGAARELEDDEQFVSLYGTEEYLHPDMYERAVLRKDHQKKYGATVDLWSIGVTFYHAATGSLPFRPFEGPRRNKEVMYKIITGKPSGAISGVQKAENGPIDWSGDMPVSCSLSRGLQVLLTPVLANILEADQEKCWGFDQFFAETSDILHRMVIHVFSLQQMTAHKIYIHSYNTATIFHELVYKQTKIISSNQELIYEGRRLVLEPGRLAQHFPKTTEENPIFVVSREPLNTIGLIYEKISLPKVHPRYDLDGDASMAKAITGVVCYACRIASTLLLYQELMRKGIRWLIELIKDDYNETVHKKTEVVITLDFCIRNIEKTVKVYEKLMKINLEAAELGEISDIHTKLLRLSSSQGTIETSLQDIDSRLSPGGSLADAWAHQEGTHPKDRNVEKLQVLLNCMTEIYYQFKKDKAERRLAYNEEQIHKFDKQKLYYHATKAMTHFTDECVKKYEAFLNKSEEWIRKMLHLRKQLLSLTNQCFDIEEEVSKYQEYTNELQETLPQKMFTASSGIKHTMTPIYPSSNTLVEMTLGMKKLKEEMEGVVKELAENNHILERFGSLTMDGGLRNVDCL

[31] = target: Mitogen-activated protein kinase 14 (Homo sapiens, UniProt Q16539); experiment: Inhibition of p38alpha
[32] = Selectivity ratio of p38alpha over p38beta
[33] = target: Cyclin-dependent kinase 7/ cyclin H (Homo sapiens) (UniProt P51946+P50613); experiment: Inhibition of CDK7/cyclin H/MNAT1 at 10 uM; assay type: protein-complex assay
[34] = target: Tyrosine-protein kinase ABL1 (Homo sapiens) (UniProt P00519); experiment: Inhibition of ABL1 at 10 uM
[35] = system: Tyrosine-protein kinase ABL1 (Homo sapiens), P00519 [E255K]; experiment: Inhibition of ABL1 E255K (mutant) at 10 uM
[36] = system: Tyrosine-protein kinase ABL1 (Homo sapiens), P00519 [T315I]; experiment: Inhibition of ABL1 T315I (mutant) at 10 uM
[37] = target: Aurora kinase A (Homo sapiens) (UniProt O14965); experiment: Inhibition of Aurora A at 10 uM
[38] = target: Tyrosine-protein kinase receptor UFO (Homo sapiens) (UniProt P30530); experiment: Inhibition of AXL at 10 uM
Chain of Tyrosine-protein kinase receptor UFO (Homo sapiens) (P30530 whole entry): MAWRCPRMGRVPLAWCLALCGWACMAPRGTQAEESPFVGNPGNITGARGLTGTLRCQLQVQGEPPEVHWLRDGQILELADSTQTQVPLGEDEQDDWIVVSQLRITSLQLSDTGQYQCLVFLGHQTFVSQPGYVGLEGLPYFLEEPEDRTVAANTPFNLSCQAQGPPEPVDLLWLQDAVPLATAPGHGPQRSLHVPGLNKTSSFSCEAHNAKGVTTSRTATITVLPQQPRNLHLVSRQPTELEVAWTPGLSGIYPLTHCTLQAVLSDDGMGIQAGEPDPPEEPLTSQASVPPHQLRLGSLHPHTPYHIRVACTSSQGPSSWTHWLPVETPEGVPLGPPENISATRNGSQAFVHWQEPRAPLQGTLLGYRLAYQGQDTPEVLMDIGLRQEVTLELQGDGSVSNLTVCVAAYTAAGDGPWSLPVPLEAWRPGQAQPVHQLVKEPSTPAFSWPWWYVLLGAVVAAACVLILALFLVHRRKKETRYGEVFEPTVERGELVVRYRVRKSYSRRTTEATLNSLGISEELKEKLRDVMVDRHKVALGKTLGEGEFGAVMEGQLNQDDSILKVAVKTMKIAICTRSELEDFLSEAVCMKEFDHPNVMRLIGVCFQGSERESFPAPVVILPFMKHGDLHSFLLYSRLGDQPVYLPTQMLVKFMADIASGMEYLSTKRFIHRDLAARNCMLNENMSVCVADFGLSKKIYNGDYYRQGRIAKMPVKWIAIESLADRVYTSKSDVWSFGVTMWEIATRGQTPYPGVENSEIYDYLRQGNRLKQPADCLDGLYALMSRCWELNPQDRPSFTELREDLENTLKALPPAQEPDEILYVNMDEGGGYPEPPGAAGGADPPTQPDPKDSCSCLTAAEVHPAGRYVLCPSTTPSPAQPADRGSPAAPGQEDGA

[39] = target: Tyrosine-protein kinase BTK (Homo sapiens) (UniProt Q06187); experiment: Inhibition of BTK at 10 uM
Chain of Tyrosine-protein kinase BTK (Homo sapiens) (Q06187 whole entry): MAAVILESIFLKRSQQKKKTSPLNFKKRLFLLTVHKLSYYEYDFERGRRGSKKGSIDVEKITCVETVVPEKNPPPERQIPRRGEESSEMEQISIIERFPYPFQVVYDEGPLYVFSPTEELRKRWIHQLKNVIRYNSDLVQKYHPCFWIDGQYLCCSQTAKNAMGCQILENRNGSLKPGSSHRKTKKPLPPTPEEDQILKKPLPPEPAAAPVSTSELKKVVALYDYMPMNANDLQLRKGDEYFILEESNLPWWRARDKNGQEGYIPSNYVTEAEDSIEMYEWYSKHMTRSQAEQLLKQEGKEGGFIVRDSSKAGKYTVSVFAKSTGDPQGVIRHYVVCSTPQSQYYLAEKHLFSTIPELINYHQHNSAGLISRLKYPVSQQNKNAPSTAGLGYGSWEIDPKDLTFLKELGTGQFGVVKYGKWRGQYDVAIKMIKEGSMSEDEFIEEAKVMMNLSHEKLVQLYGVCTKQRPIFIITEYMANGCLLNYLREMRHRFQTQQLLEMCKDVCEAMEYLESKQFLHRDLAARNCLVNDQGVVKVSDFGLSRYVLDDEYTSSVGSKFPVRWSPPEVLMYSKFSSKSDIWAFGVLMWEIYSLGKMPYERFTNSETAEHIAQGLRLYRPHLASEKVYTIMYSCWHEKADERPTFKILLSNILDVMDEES

[40] = target: Calcium/calmodulin-dependent protein kinase type IV (Homo sapiens) (UniProt Q16566); experiment: Inhibition of CAMK4 at 10 uM
Chain of Calcium/calmodulin-dependent protein kinase type IV (Homo sapiens) (Q16566 whole entry): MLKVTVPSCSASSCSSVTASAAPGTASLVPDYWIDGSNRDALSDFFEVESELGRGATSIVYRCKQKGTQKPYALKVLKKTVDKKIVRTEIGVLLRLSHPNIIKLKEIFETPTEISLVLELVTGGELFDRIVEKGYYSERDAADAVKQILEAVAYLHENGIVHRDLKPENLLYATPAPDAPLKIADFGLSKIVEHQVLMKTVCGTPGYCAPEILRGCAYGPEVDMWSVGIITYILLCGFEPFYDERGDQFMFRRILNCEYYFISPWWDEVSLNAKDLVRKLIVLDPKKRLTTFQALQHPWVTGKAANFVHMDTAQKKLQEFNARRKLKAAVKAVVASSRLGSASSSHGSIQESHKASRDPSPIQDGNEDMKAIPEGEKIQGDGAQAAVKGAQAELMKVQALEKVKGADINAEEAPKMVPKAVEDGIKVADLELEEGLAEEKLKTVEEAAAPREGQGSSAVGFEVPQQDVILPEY

[41] = target: Cyclin-dependent kinase 2/cyclin A (Homo sapiens) (UniProt P24941+P20248+P78396); experiment: Inhibition of CDK2/cyclinA at 10 uM; assay type: protein-complex assay
[42] = target: T1, Cyclin-dependent kinase 5/CDK5 activator 1 (Homo sapiens) (UniProt Q00535+Q15078); experiment: Inhibition of CDK5/p25 at 10 uM; assay type: protein-complex assay
T1 sequence (Q00535 whole entry): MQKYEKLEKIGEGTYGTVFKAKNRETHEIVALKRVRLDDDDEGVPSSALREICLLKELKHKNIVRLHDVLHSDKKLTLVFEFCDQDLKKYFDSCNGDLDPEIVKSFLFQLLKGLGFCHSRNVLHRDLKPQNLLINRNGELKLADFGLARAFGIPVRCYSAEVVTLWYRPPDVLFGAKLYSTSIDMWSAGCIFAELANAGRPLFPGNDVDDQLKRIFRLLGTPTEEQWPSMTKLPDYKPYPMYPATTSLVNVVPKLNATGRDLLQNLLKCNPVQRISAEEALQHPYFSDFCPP
T1 sequence (Q15078 99-307 partner limits assumed): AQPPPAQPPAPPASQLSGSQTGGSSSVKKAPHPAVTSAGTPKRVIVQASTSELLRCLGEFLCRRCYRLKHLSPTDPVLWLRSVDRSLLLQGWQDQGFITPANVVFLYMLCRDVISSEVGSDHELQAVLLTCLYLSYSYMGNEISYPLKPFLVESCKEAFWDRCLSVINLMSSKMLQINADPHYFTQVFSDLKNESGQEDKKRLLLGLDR

[43] = target: T1, Cyclin-dependent kinase 5/CDK5 activator 1 (Homo sapiens); experiment: Inhibition of CDK5/p35 at 10 uM; assay type: protein-complex assay
[44] = target: Serine/threonine-protein kinase DCLK2 (Homo sapiens) (UniProt Q8N568); experiment: Inhibition of DCK2 at 10 uM
[45] = target: Dual specificity tyrosine-phosphorylation-regulated kinase 1B (Homo sapiens) (UniProt Q9Y463); experiment: Inhibition of DYRK1B at 10 uM
[46] = target: Dual specificity tyrosine-phosphorylation-regulated kinase 3 (Homo sapiens) (UniProt O43781); experiment: Inhibition of DYRK3 at 10 uM
[47] = target: Ephrin type-A receptor 1 (Homo sapiens) (UniProt P21709); experiment: Inhibition of EPHA1 at 10 uM

inhibition [1]: < 50%
inhibition [2]: < 50%
inhibition [3]: < 50%
inhibition [4]: < 50%
inhibition [5]: < 50%
inhibition [6]: < 50%
inhibition [7]: < 50%
inhibition [8]: < 50%
inhibition [9]: < 50%
inhibition [10]: < 50%
inhibition [11]: < 50%
inhibition [12]: 99%
inhibition [13]: < 50%
inhibition [14]: < 50%
inhibition [15]: < 50%
inhibition [17]: < 50%
inhibition [18]: < 50%
inhibition [19]: < 50%
inhibition [20]: < 50%
inhibition [21]: < 50%
inhibition [22]: < 50%
inhibition [23]: < 50%
inhibition [24]: < 50%
inhibition [25]: < 50%
inhibition [26]: < 50%
inhibition [27]: < 50%
inhibition [28]: < 50%
inhibition [29]: < 50%
inhibition [30]: < 50%
IC50 [31]: 59 nM
Selectivity ratio [32]: 5
inhibition [33]: < 50%
inhibition [34]: < 50%
inhibition [35]: < 50%
inhibition [36]: < 50%
inhibition [37]: < 50%
inhibition [38]: < 50%
inhibition [39]: < 50%
inhibition [40]: < 50%
inhibition [41]: < 50%
inhibition [42]: < 50%
inhibition [43]: < 50%
inhibition [44]: < 50%
inhibition [45]: < 50%
inhibition [46]: < 50%
inhibition [47]: < 50%
SMILES: Cc1cc(OCc2ccc(F)cc2F)c(Br)c(=O)n1Cc1ccc(CN(C)C)cc1
inhibition [16]: < 50%
